From PubChem BioAssay AID1259407 (Chemical Carcinogenesis Research Information System (CCRIS), 2018)
Calls of active or inactive are those of the source. The rule behind the calls is not given here.

Test system: CCRIS mutagenicity, Ames/micronucleus/aberration tests
Experiment: CCRIS mutagenicity studies
[1] = Test System: AMES SALMONELLA TYPHIMURIUM, Strain/Indicator: TA98, Metabolic Activation: NONE, Method: STANDARD PLATE
[2] = Test System: AMES SALMONELLA TYPHIMURIUM, Strain/Indicator: TA100, Metabolic Activation: NONE, Method: STANDARD PLATE
[3] = Test System: AMES SALMONELLA TYPHIMURIUM, Strain/Indicator: TA1535, Metabolic Activation: NONE, Method: STANDARD PLATE
[4] = Test System: AMES SALMONELLA TYPHIMURIUM, Strain/Indicator: TA1537, Metabolic Activation: NONE, Method: STANDARD PLATE
[5] = Test System: AMES SALMONELLA TYPHIMURIUM, Strain/Indicator: TA1538, Metabolic Activation: NONE, Method: STANDARD PLATE

How did the mutagenic call (Test System: AMES SALMONELLA TYPHIMURIUM, Strain/Indicator: TA97, Metabolic Activation: HAMSTER, LIVER, S-9, AROCLOR 1254 (10%), Method: PREINCUBATION) turn out when Cc1ccc(O)c(N)c1 was run?
Its mutagenic call is “inactive; negative”.

And the mutagenic call (Test System: AMES SALMONELLA TYPHIMURIUM, Strain/Indicator: TA97, Metabolic Activation: NONE, Method: PREINCUBATION)?
Its mutagenic call is “active; positive”.

What about the mutagenic call (Test System: AMES SALMONELLA TYPHIMURIUM, Strain/Indicator: TA97, Metabolic Activation: RAT, LIVER, S-9, AROCLOR 1254 (10%), Method: PREINCUBATION) of the same molecule?
The mutagenic call was “inactive; negative”.

What about the mutagenic call (Test System: AMES SALMONELLA TYPHIMURIUM, Strain/Indicator: TA98, Metabolic Activation: HAMSTER LIVER S-9, AROCLOR 1254, Method: STANDARD PLATE) of the same molecule?
The mutagenic call was “inactive; negative”.

What about the mutagenic call (Test System: AMES SALMONELLA TYPHIMURIUM, Strain/Indicator: TA98, Metabolic Activation: HAMSTER, LIVER, S-9, AROCLOR 1254 (10%), Method: PREINCUBATION) of the same molecule?
The mutagenic call was “inactive; negative”.

What about the mutagenic call (Test System: AMES SALMONELLA TYPHIMURIUM, Strain/Indicator: TA98, Metabolic Activation: NONE, Method: PREINCUBATION) of the same molecule?
The mutagenic call was “inactive; negative”.

What about the mutagenic call [1] of the same molecule?
The mutagenic call was “inactive; negative”.

What about the mutagenic call (Test System: AMES SALMONELLA TYPHIMURIUM, Strain/Indicator: TA98, Metabolic Activation: RAT LIVER S-9, AROCLOR 1254, Method: STANDARD PLATE) of the same molecule?
Its mutagenic call is “inactive; negative”.

What about the mutagenic call (Test System: AMES SALMONELLA TYPHIMURIUM, Strain/Indicator: TA98, Metabolic Activation: RAT, LIVER, S-9, AROCLOR 1254 (10%), Method: PREINCUBATION) of the same molecule?
The mutagenic call was “inactive; negative”.

What about the mutagenic call (Test System: AMES SALMONELLA TYPHIMURIUM, Strain/Indicator: TA100, Metabolic Activation: HAMSTER LIVER S-9, AROCLOR 1254, Method: STANDARD PLATE) of the same molecule?
Its mutagenic call is “inactive; negative”.

What about the mutagenic call (Test System: AMES SALMONELLA TYPHIMURIUM, Strain/Indicator: TA100, Metabolic Activation: HAMSTER, LIVER, S-9, AROCLOR 1254 (10%), Method: PREINCUBATION) of the same molecule?
The mutagenic call was “active; positive”.

And the mutagenic call (Test System: AMES SALMONELLA TYPHIMURIUM, Strain/Indicator: TA100, Metabolic Activation: NONE, Method: PREINCUBATION)?
Its mutagenic call is “active; positive”.

What about the mutagenic call [2] of the same molecule?
Its mutagenic call is “inactive; negative”.

What about the mutagenic call (Test System: AMES SALMONELLA TYPHIMURIUM, Strain/Indicator: TA100, Metabolic Activation: RAT LIVER S-9, AROCLOR 1254, Method: STANDARD PLATE) of the same molecule?
Its mutagenic call is “inactive; negative”.

And the mutagenic call (Test System: AMES SALMONELLA TYPHIMURIUM, Strain/Indicator: TA100, Metabolic Activation: RAT, LIVER, S-9, AROCLOR 1254 (10%), Method: PREINCUBATION)?
The mutagenic call was “active; positive”.

And the mutagenic call (Test System: AMES SALMONELLA TYPHIMURIUM, Strain/Indicator: TA1535, Metabolic Activation: HAMSTER LIVER S-9, AROCLOR 1254, Method: STANDARD PLATE)?
Its mutagenic call is “inactive; negative”.

And the mutagenic call (Test System: AMES SALMONELLA TYPHIMURIUM, Strain/Indicator: TA1535, Metabolic Activation: HAMSTER, LIVER, S-9, AROCLOR 1254 (10%), Method: PREINCUBATION)?
The mutagenic call was “inactive; negative”.

What about the mutagenic call (Test System: AMES SALMONELLA TYPHIMURIUM, Strain/Indicator: TA1535, Metabolic Activation: NONE, Method: PREINCUBATION) of the same molecule?
Its mutagenic call is “inactive; negative”.

What about the mutagenic call [3] of the same molecule?
Its mutagenic call is “inactive; negative”.

And the mutagenic call (Test System: AMES SALMONELLA TYPHIMURIUM, Strain/Indicator: TA1535, Metabolic Activation: RAT LIVER S-9, AROCLOR 1254, Method: STANDARD PLATE)?
Its mutagenic call is “inactive; negative”.

And the mutagenic call (Test System: AMES SALMONELLA TYPHIMURIUM, Strain/Indicator: TA1535, Metabolic Activation: RAT, LIVER, S-9, AROCLOR 1254 (10%), Method: PREINCUBATION)?
Its mutagenic call is “inactive; negative”.

And the mutagenic call (Test System: AMES SALMONELLA TYPHIMURIUM, Strain/Indicator: TA1537, Metabolic Activation: HAMSTER LIVER S-9, AROCLOR 1254, Method: STANDARD PLATE)?
The mutagenic call was “inactive; negative”.

What about the mutagenic call [4] of the same molecule?
Its mutagenic call is “inactive; negative”.

What about the mutagenic call (Test System: AMES SALMONELLA TYPHIMURIUM, Strain/Indicator: TA1537, Metabolic Activation: RAT LIVER S-9, AROCLOR 1254, Method: STANDARD PLATE) of the same molecule?
The mutagenic call was “inactive; negative”.

And the mutagenic call (Test System: AMES SALMONELLA TYPHIMURIUM, Strain/Indicator: TA1538, Metabolic Activation: HAMSTER LIVER S-9, AROCLOR 1254, Method: STANDARD PLATE)?
Its mutagenic call is “inactive; negative”.

And the mutagenic call [5]?
The mutagenic call was “inactive; negative”.

And the mutagenic call (Test System: AMES SALMONELLA TYPHIMURIUM, Strain/Indicator: TA1538, Metabolic Activation: RAT LIVER S-9, AROCLOR 1254, Method: STANDARD PLATE)?
Its mutagenic call is “inactive; negative”.

What about the mutagenic call (Test System: MOUSE LYMPHOMA, Strain/Indicator: L5178Y (TK+/TK-), Metabolic Activation: NONE, Method: SUSPENSION/PLATE) of the same molecule?
Its mutagenic call is “active; positive. reevaluation of results: positive”.

And the mutagenic call (Test System: MOUSE LYMPHOMA, Strain/Indicator: L5178Y (TK+/TK-), Metabolic Activation: RAT, LIVER, S-9, AROCLOR 1254, Method: SUSPENSION/PLATE)?
Its mutagenic call is “active; positive. reevaluation of results: positive”.

For O=C/C=C\C=O, which mutagenic call (End Point: In vitro micronucleus, Test System: Mouse lymphoma L5178Y cells, Metabolic Activation: None) is on record?
Its mutagenic call is “active; positive”.

What about the mutagenic call (Test System: AMES SALMONELLA TYPHIMURIUM, Strain/Indicator: TA104, Metabolic Activation: NONE, Method: PREINCUBATION) of the same molecule?
The mutagenic call was “active; positive”.

And the mutagenic call (Test System: Mouse lymphoma, Strain/Indicator: L5178Y (tk+/tk-), Metabolic Activation: None, Method: Preincubation)?
Its mutagenic call is “active; positive”.

O=[N+]([O-])c1cc(Cl)cc(Sc2cc(Cl)cc([N+](=O)[O-])c2O)c1O was tested. Which mutagenic call [1] did it give?
The mutagenic call was “inactive; negative”.

And the mutagenic call (Test System: AMES SALMONELLA TYPHIMURIUM, Strain/Indicator: TA98, Metabolic Activation: RAT, LIVER, S-9, KANECHLOR 400, Method: STANDARD PLATE)?
The mutagenic call was “inactive; negative”.

And the mutagenic call [2]?
The mutagenic call was “inactive; negative”.

And the mutagenic call (Test System: AMES SALMONELLA TYPHIMURIUM, Strain/Indicator: TA100, Metabolic Activation: RAT, LIVER, S-9, KANECHLOR 400, Method: STANDARD PLATE)?
Its mutagenic call is “inactive; negative”.

And the mutagenic call [3]?
Its mutagenic call is “inactive; negative”.

And the mutagenic call (Test System: AMES SALMONELLA TYPHIMURIUM, Strain/Indicator: TA1535, Metabolic Activation: RAT, LIVER, S-9, KANECHLOR 400, Method: STANDARD PLATE)?
The mutagenic call was “inactive; negative”.

What about the mutagenic call [4] of the same molecule?
The mutagenic call was “inactive; negative”.

And the mutagenic call (Test System: AMES SALMONELLA TYPHIMURIUM, Strain/Indicator: TA1537, Metabolic Activation: RAT, LIVER, S-9, KANECHLOR 400, Method: STANDARD PLATE)?
Its mutagenic call is “inactive; negative”.

What about the mutagenic call [5] of the same molecule?
Its mutagenic call is “inactive; negative”.

And the mutagenic call (Test System: AMES SALMONELLA TYPHIMURIUM, Strain/Indicator: TA1538, Metabolic Activation: RAT, LIVER, S-9, KANECHLOR 400, Method: STANDARD PLATE)?
Its mutagenic call is “inactive; negative”.

Which results are given for C(CCC1CO1)CC1CO1 (stereo not drawn)?
mutagenic call (Test System: AMES SALMONELLA TYPHIMURIUM, Strain/Indicator: TA97A, Metabolic Activation: NONE, Method: STANDARD PLATE): active; positive; mutagenic call [2]: active; positive; mutagenic call (Test System: AMES SALMONELLA TYPHIMURIUM, Strain/Indicator: TA102, Metabolic Activation: NONE, Method: STANDARD PLATE): active; positive; mutagenic call (Test System: AMES SALMONELLA TYPHIMURIUM, Strain/Indicator: TA102, Metabolic Activation: RAT LIVER S-9, AROCLOR 1254, Method: STANDARD PLATE): active; positive; mutagenic call [3]: active; positive; mutagenic call [4]: inactive; negative
